{"source": "patent US20080159987A1", "about": "(priority 2007, published 2008)", "key": {"[1]": {"tested_on": "IBS patients with RLS", "assay": "Open-label, observational pilot trial: GI (IBS) symptom improvement questionnaire", "format": "in vivo, human", "text": "(§1) Patients visiting a community-based adult gastroenterology clinic over a 4-month period were eligible for the study if they presented with functional bowel symptoms and had abnormal lactulose breath test (LBT) results. Patients were excluded if they had celiac disease, Crohn's disease, pancreatic insufficiency, ulcerative colitis, scleroderma, diabetes, chronic renal failure, or surgeries predisposing them to SIBO. A diagnosis of RLS was confirmed using the Johns Hopkins validated interview process.\n(§2) This was followed by long-term administration of the prokinetic medicine tegaserod (ZELNORM® produced by Novartis Pharmaceuticals Corporation, East Hanover, N.J.) 3 mg nightly plus short-term treatment with zinc 220 mg/d for one month for increased small intestinal permeability and a bifidobacteria-based probiotic (FLORA-Q® produced by Kenwood Therapeutics, Fairfield, N.J.) once daily for one month. Two patients were treated with rifaximin alone.\nEach patient completed a questionnaire identifying the occurrence and rating the severity of six IBS symptoms experienced during the week before the LBT was conducted (baseline): abdominal pain, bloating, constipation, diarrhea, flatulence, and postprandial fullness. A history consistent with RLS and fibromyalgia was sought. Serum ferritin levels were measured at baseline.\n(§3) The percentage of RLS symptom improvement was assessed at the end of follow-up.\n(§4) The remaining two patients (the neurology clinic patient and propositus) received a modified treatment regimen.\nPercentages of RLS and IBS symptom improvement as well as global IBS symptom improvement were assessed at a mean of 107 days (range, 22-450 days). […] The ten patients who responded included the three patients who had borderline or low serum levels of iron at baseline. […] Eight of the ten patients with at least 80% improvement in RLS symptoms were followed long-term (mean, 139 days; range, 54-450 days), and 5 of the 8 patients reported complete (100%) resolution of RLS symptoms at the last follow-up visit."}, "[2]": {"conditions": "cited from earlier work"}, "[3]": {"tested_on": "IBS patients with RLS", "assay": "Follow-up lactulose breath test (LBT)", "format": "in vivo, human", "conditions": "neurology patient, two months after completing rifaximin therapy", "protocol": "Patients consumed a low carbohydrate dinner and fasted overnight. Breath samples were collected every 15 minutes for 180 minutes and were analyzed by gas chromatography (using, for example, a QUINTRON DP PLUS MICROLYZER™ manufactured by QuinTron Instrument Company, Milwaukee, Wis.) for levels of hydrogen and methane. After a baseline recording, patients consumed 10 g of lactulose powder (for example, KRISTALOSE® produced by Bertek Pharmaceuticals Inc, Sugar Land, Tex.) dissolved in 240 mL of water. An abnormal LBT result was defined as an increase of greater than 20 ppm above baseline levels for hydrogen and/or methane gas 180 minutes or less after ingesting lactulose. An abnormal flatline LBT result was defined as a lack of a greater than 5-ppm increase above baseline levels for either hydrogen or methane during the 180-minute test. The role of SIBO in IBS and diseases other than restless legs syndrome, as well as the efficacy of breath tests in the diagnosis of SIBO is discussed in U.S. Pat. Nos. 6,861,053; 6,805,852; 7,056,686; and 7,048,906 to Lin and Pimentel, the disclosures of each of which are expressly incorporated by reference herein."}, "[4]": {"tested_on": "IBS patients with RLS", "assay": "Open-label, observational pilot trial: RLS symptom improvement", "format": "in vivo, human", "text": "It was suspected that the patient might have postinfectious IBS and SIBO.\nas §1, §2, §3\nThirteen IBS patients with confirmed RLS were included in the study. Eleven of these 13 patients were originally included in a SIBO study of IBS: 19 of 161 patients with an abnormal LBT result thought they had RLS. A diagnosis of RLS was confirmed in 11 of these 19 patients by the Johns Hopkins validated interview process. The remaining 2 of 13 patients with RLS (1 was the propositus and the other was referred from a neurology clinic) had been previously evaluated and treated for RLS by a neurologist.\nas §4\nPercentages of RLS and IBS symptom improvement as well as global IBS symptom improvement were assessed at a mean of 107 days (range, 22-450 days). […] The ten patients who responded included the three patients who had borderline or low serum levels of iron at baseline. […]"}, "[5]": {"conditions": "day 11, after ten days of rifaximin therapy"}, "[6]": {"conditions": "end of follow-up (mean 107 days), rifaximin followed by tegaserod, zinc, probiotic in 11 of 13"}, "[7]": {"conditions": "last follow-up visit, 13 patients"}}}
{"smiles": "CO[C@H]1/C=C/O[C@@]2(C)Oc3c(C)c(O)c4c(O)c(c5c(nc6cc(C)ccn65)c4c3C2=O)NC(=O)/C(C)=C\\C=C\\[C@H](C)[C@H](O)[C@@H](C)[C@@H](O)[C@@H](C)[C@H](OC(C)=O)[C@@H]1C", "note": "[rifaximin]", "values": [{"measurement": "GI symptom improvement: abdominal pain", "setting": "[1]; [5]", "value": 74, "unit": "%"}, {"measurement": "GI symptom improvement: bloating", "setting": "[1]; [5]", "value": 70, "unit": "%"}, {"measurement": "GI symptom improvement: constipation", "setting": "[1]; [5]", "value": 64, "unit": "%"}, {"measurement": "GI symptom improvement: diarrhea", "setting": "[1]; [5]", "value": 73, "unit": "%"}, {"measurement": "GI symptom improvement: flatulence", "setting": "[1]; [5]", "value": 47, "unit": "%"}, {"measurement": "GI symptom improvement: postprandial fullness", "setting": "[1]; [5]", "value": 65, "unit": "%"}, {"measurement": "GI symptom improvement: abdominal pain", "setting": "[1]; [6]", "value": 81, "unit": "%"}, {"measurement": "GI symptom improvement: bloating", "setting": "[1]; [6]", "value": 76, "unit": "%"}, {"measurement": "GI symptom improvement: constipation", "setting": "[1]; [6]", "value": 59, "unit": "%"}, {"measurement": "GI symptom improvement: diarrhea", "setting": "[1]; [6]", "value": 68, "unit": "%"}, {"measurement": "GI symptom improvement: flatulence", "setting": "[1]; [6]", "value": 55, "unit": "%"}, {"measurement": "GI symptom improvement: postprandial fullness", "setting": "[1]; [6]", "value": 67, "unit": "%"}, {"measurement": "global symptom improvement rated as greatly improved", "setting": "[1]; [7]", "value": 6, "unit": "patients"}, {"measurement": "global symptom improvement rated as mildly improved", "setting": "[1]; [7]", "value": "two"}, {"measurement": "global symptom improvement rated as moderately improved", "setting": "[1]; [7]", "value": "five"}, {"measurement": "solubility in water", "setting": "[2]", "value": "practically insoluble in water"}, {"measurement": "LBT result after therapy", "setting": "[3]", "value": "normal"}, {"measurement": "patients reporting complete (100%) resolution of RLS symptoms at the last follow-up visit", "setting": "[4]; of 8 responders followed long-term (mean 139 days; range 54-450 days)", "value": "5 of the 8"}, {"measurement": "patients exhibiting at least 80% improvement in RLS symptoms at the last follow-up visit", "setting": "[4]; rifaximin 400 mg three times daily for ten days, in 11 of 13 followed by tegaserod, zinc, probiotic, assessed at mean 107 days (range 22-450)", "value": "Ten of 13"}, {"measurement": "response for both RLS and IBS symptoms", "setting": "[4]; single patient (propositus), empiric treatment with rifaximin", "value": "dramatic, rapid, and prolonged response"}]}
